The results in this text go back to publication PMC9926234, “Iterative computational design and crystallographic screening identifies potent inhibitors targeting the Nsp3 macrodomain of SARS-CoV-2” (Proceedings of the National Academy of Sciences of the …, 2023).

Several values for one entry are separate records, joined by “and”; a condition that tells them apart may be missing. Identical values can stand only once. Like-named read-outs stand apart in the source and are kept apart here.

In test [1] the target is T1, SARS-CoV-2 NSP3 Mac1 (Severe acute respiratory syndrome coronavirus 2, UniProt P0DTD1). The test is classed as binding. The arrangement: contains a conserved macrodomain enzyme (Mac1). Particulars: for Spearman est (compound concentration vs apparent Tm): DSF dose responsiveness, 1 µM nsp3 mac1, adj p given; for DSF max dTma: maximal thermal upshift vs DMSO control. Here is the method: DSF and associated compound handling was performed as described ([12]), with 5 µM dye “Fluorescent Yellow” (Jacquard iDye Cat #JID1405) used in place of SYPRO Orange. Compounds were tested in triplicate, at seven concentrations in two-fold serial dilutions, at a top concentration of either 1,000 or 100 μM. To minimize experimental noise arising from plate location-based effects on Tma, all concentrations and replicates for each compound were tested within a single region of the microtiter plates, including a DMSO-only control from which ΔTmas were calculated for that compound. […] For each compound, to determine statistical significance of the dose responsive thermal shift, the Spearman’s coefficient was calculated between compound concentration and ΔTma.

Test [2] deals with T1, SARS-CoV-2 NSP3 Mac1. The test is classed as binding. To be noted: for Refined occupancy: ligand occupancy after refinement (phenix.refine); for HIT*: true hit = binding in crystallographic soaking or the HTRF-based binding assay. For orientation: Time-resolved FRET reads energy transfer from a long-lived donor to a nearby acceptor.
Setting [3] is: PanDDA 1-BDC of the event, compound stock 100 mM, Echo dispense volume 40 nl.
Where [4] appears, read: PanDDA event map, 1 minus background density correction, crystal soaking of Mac1.
The mark [5] stands for this setting: crystal soak, compound stock 100 mM, Echo dispense volume 40 nl.
[6] abbreviates: ligand modeled in structure, compound stock 100 mM, Echo dispense volume 40 nl.
The mark [7] stands for this setting: PanDDA event map 1-BDC, crystal soak, Compound_concentration 100 mM, PanDDA run dmso_34 or nohits_35 per dataset.
The mark [8] stands for this setting: crystal soak, Compound_concentration 100 mM, Echo dispense 40 nl, PanDDA run dmso_34 or nohits_35 per dataset.
[9] abbreviates: PanDDA 1-BDC value of the event, crystal soak, compound concentration 100 mM, per dataset.
[10] abbreviates: crystal soak, compound concentration 100 mM, per dataset.
Where [11] appears, read: ligand modeled in the crystal structure, crystal soak, compound concentration 100 mM, per dataset.
Where [12] appears, read: PanDDA event map, 1-BDC of the hit dataset, crystal soak, compound concentration 100 mM.
Setting [13] is: PanDDA event map, crystal soak, Compound_concentration 100 mM, Echo_dispense_volume 40 nl.
The mark [14] stands for this setting: crystal soak, Compound_concentration 100 mM, Echo_dispense_volume 40 nl, PanDDA run (background map) dmso_34, nohits_35 or nohits_62.
[15] abbreviates: ligand modeled, crystal soak, Compound_concentration 100 mM, Echo_dispense_volume 40 nl.
Setting [16] is: PanDDA event map background density correction, crystal soak, compound concentration 100 mM.

Consider `O=C1CCCN1CCSc1ncnc2[nH]cnc12` [ZINC000118179920], for which, on SARS-CoV-2 NSP3 Mac1 [1], the “Spearman est (compound concentration vs apparent Tm)” value is given as 0.78.

With `O=C(Nc1cccnc1)Nc1ccc2ccccc2n1` [Z8614], the “DSF max dTma” value on SARS-CoV-2 NSP3 Mac1 [1] worked out at 0.06 °C.

Consider `Cc1cc(C)nc(CSc2nnc3c(=O)[nH]c4ccccc4n23)c1` [Z7570], for which, on SARS-CoV-2 NSP3 Mac1 [1], the “DSF max dTma” value is 0.36 °C.

Turning to `O=C(Nc1cccnc1)Nc1nc2ccccc2c(=O)[nH]1` [Z4718398593], the “Spearman est (compound concentration vs apparent Tm)” value at SARS-CoV-2 NSP3 Mac1 [1] is −0.56.

`O=C(O)CC1CN(c2ncnc3[nH]c4ccccc4c23)CCO1` (stereo not drawn) [Compound Z9596]: the 1-BDC at SARS-CoV-2 NSP3 Mac1 [2] (setting [3]) was determined as 0.06; on SARS-CoV-2 NSP3 Mac1 [2] (PanDDA 1-BDC of the event, compound stock 100 mM, Echo dispense volume 80 nl), 0.09. Besides, the “1-BDC (PanDDA)” value on SARS-CoV-2 NSP3 Mac1 [2] (setting [4]) was 0.06. Also, the “PanDDA hit?” value on SARS-CoV-2 NSP3 Mac1 [2] (setting [5]) was “TRUE”; on SARS-CoV-2 NSP3 Mac1 [2] (crystal soak, compound stock 100 mM, Echo dispense volume 80 nl), “TRUE”. The “Modeled?” value on SARS-CoV-2 NSP3 Mac1 [2] (setting [6]) is given as “TRUE”. The Refined occupancy on SARS-CoV-2 NSP3 Mac1 [2] (crystal soaking of Mac1) came out at 12.

At SARS-CoV-2 NSP3 Mac1 [2] (setting [4]), `Nc1nc(N)c2ncn(Cc3csc(Cl)n3)c2n1` [Compound Z8572] had a 1-BDC of 0.44. Besides, the “Modeled?” value on SARS-CoV-2 NSP3 Mac1 [2] (ligand modeled in structure, crystal soak, Compound_concentration 100 mM) is listed as “TRUE”. This molecule displayed a Refined occupancy on SARS-CoV-2 NSP3 Mac1 [2] (crystal soaking of Mac1) of 88.

`FC1(F)CCCC(Nc2ncnc3[nH]ccc23)C1` (stereo not drawn) [SRH-0014] displayed a 1-BDC on SARS-CoV-2 NSP3 Mac1 [2] (setting [7]) of 0.09. Further, the “PanDDA hit?” value at SARS-CoV-2 NSP3 Mac1 [2] (setting [8]) is “TRUE”.

As to `O=C(NC1c2cccc(O)c2CC1C(=O)O)c1ccc(Nc2cccnc2)cc1` (stereo not drawn) [Z8539_0018], the “HIT*” value on SARS-CoV-2 NSP3 Mac1 [2] was “Y”.

Turning to `Cc1nc(Cn2cnc3c(N)nc(N)nc32)cs1` [Compound Z8569], the 1-BDC at SARS-CoV-2 NSP3 Mac1 [2] (setting [9]) and on SARS-CoV-2 NSP3 Mac1 [2] (setting [4]) was 0.4 throughout. Besides, on SARS-CoV-2 NSP3 Mac1 [2] (setting [10]), the “PanDDA hit?” value is on record as “TRUE”. Further, on SARS-CoV-2 NSP3 Mac1 [2] (setting [11]), the “Modeled?” value is “TRUE”. At SARS-CoV-2 NSP3 Mac1 [2] (crystal soaking of Mac1), this molecule gave a Refined occupancy of 80.

As for `CC1(C)CN(c2ncnc3[nH]c4ccccc4c23)CC(CC(=O)O)O1` (stereo not drawn) [Compound Z2215], the 1-BDC amounted to 0.05 on SARS-CoV-2 NSP3 Mac1 [2] (setting [3]) and 0.04 on SARS-CoV-2 NSP3 Mac1 [2] (setting [7]). Besides, the “1-BDC (PanDDA)” value on SARS-CoV-2 NSP3 Mac1 [2] (setting [4]) is 0.05. Further, the “PanDDA hit?” value on SARS-CoV-2 NSP3 Mac1 [2] (setting [8]) and at SARS-CoV-2 NSP3 Mac1 [2] (setting [5]) was “TRUE” each time. Besides, the “Modeled?” value at SARS-CoV-2 NSP3 Mac1 [2] (setting [6]) is “TRUE”. At SARS-CoV-2 NSP3 Mac1 [2] (crystal soaking of Mac1), this molecule gave a Refined occupancy of 10.

Consider `Nc1ncc(S(=O)(=O)N2CC(F)(F)C[C@H]2C(=O)O)cn1` [Compound Z1314], for which the 1-BDC worked out at 0.49 on SARS-CoV-2 NSP3 Mac1 [2] (setting [9]), 0.3 on SARS-CoV-2 NSP3 Mac1 [2] (setting [12]) and 0.19 at SARS-CoV-2 NSP3 Mac1 [2] (setting [4]). Also, the “PanDDA hit?” value on SARS-CoV-2 NSP3 Mac1 [2] (setting [10]) is “TRUE”. At SARS-CoV-2 NSP3 Mac1 [2] (crystal soaking of Mac1), this molecule had a Refined occupancy of 38.

On to `Nc1ncc(S(=O)(=O)N2CC(F)(F)C[C@H]2C(=O)O)cn1` [Z1314], for which the “HIT*” value on SARS-CoV-2 NSP3 Mac1 [2] was “Y”.

On to `Nc1nc(N)c2ncn(Cc3csc(C4CC4)n3)c2n1` [Compound Z8585], for which the 1-BDC was found to be 0.18 on SARS-CoV-2 NSP3 Mac1 [2] (setting [9]), 0.4 at SARS-CoV-2 NSP3 Mac1 [2] (setting [12]) and 0.18 at SARS-CoV-2 NSP3 Mac1 [2] (setting [4]). The “PanDDA hit?” value on SARS-CoV-2 NSP3 Mac1 [2] (setting [10]) was “TRUE”. For the same molecule, the “Modeled?” value at SARS-CoV-2 NSP3 Mac1 [2] (setting [11]) is “TRUE”. Besides, the Refined occupancy on SARS-CoV-2 NSP3 Mac1 [2] (crystal soaking of Mac1) came to 36.

Consider `O=C1CCCN1CCSc1ncnc2[nH]cnc12` [Compound Z9920], for which the 1-BDC amounted to 0.21 at SARS-CoV-2 NSP3 Mac1 [2] (PanDDA 1-BDC (background density correction) of the event, crystal soak 100 mM, PanDDA run dmso_34) and 0.21 at SARS-CoV-2 NSP3 Mac1 [2] (setting [4]). The “PanDDA hit?” value on SARS-CoV-2 NSP3 Mac1 [2] (crystal soak, compound concentration 100 mM, PanDDA run dmso_34, series docking_lead-like_1) was “TRUE”. For the same molecule, the “Modeled?” value at SARS-CoV-2 NSP3 Mac1 [2] (ligand modeled in the crystal structure, crystal soak 100 mM, PanDDA run dmso_34) was “TRUE”. The Refined occupancy on SARS-CoV-2 NSP3 Mac1 [2] (crystal soaking of Mac1) is reported as 42.

For the molecule `O=C(Cc1ccc(-n2cccn2)cc1)OCC1CCCNC1=O` (stereo not drawn) [Compound Z5505], the 1-BDC at SARS-CoV-2 NSP3 Mac1 [2] (PanDDA event map background density correction, crystal soak, Compound_concentration 100 mM, PanDDA run dmso_34) is 0.08; on SARS-CoV-2 NSP3 Mac1 [2] (setting [4]) it was 0.08. In addition, on SARS-CoV-2 NSP3 Mac1 [2] (crystal soak, Compound_concentration 100 mM, Echo dispense 40 nl, PanDDA run dmso_34), the “PanDDA hit?” value is listed as “TRUE”. For the same molecule, the “Modeled?” value at SARS-CoV-2 NSP3 Mac1 [2] (ligand modeled in crystal structure, crystal soak, Compound_concentration 100 mM, PanDDA run dmso_34) is given as “TRUE”. Besides, the Refined occupancy at SARS-CoV-2 NSP3 Mac1 [2] (crystal soaking of Mac1) is on record as 16.

Consider `O=C(O)Cc1cccc(CNC(=O)c2ncnc3ccsc23)c1` [Compound Z5712], for which the “1-BDC (PanDDA)” value at SARS-CoV-2 NSP3 Mac1 [2] (setting [4]) was 0.32. This molecule came in with a 1-BDC on SARS-CoV-2 NSP3 Mac1 [2] (setting [13]) of 0.32. Further, the “PanDDA hit?” value on SARS-CoV-2 NSP3 Mac1 [2] (setting [14]) is given as “TRUE”. The “Modeled?” value on SARS-CoV-2 NSP3 Mac1 [2] (setting [15]) is recorded as “TRUE”. Besides, the Refined occupancy on SARS-CoV-2 NSP3 Mac1 [2] (crystal soaking of Mac1) came out at 64.

On to `O=C(NC1C=CC(C(=O)O)C1)c1ncnc2sccc12` (stereo not drawn) [Compound Z6645], for which the 1-BDC at SARS-CoV-2 NSP3 Mac1 [2] (setting [16]) is 0.4. In addition, the “1-BDC (PanDDA)” value on SARS-CoV-2 NSP3 Mac1 [2] (setting [4]) is given as 0.4. Besides, the “Modeled?” value at SARS-CoV-2 NSP3 Mac1 [2] (ligand modeled in the crystal structure, crystal soak, compound concentration 100 mM) is on record as “TRUE”. In addition, on SARS-CoV-2 NSP3 Mac1 [2] (crystal soaking of Mac1), the Refined occupancy was 80.

For the molecule `CCC(=O)Nc1nc(C)c(S(=O)(=O)Nc2cccc(C#N)c2)s1` [Compound Z0611], the “1-BDC (PanDDA)” value on SARS-CoV-2 NSP3 Mac1 [2] (setting [4]) came to 0.33. Also, the 1-BDC on SARS-CoV-2 NSP3 Mac1 [2] (setting [13]) is 0.33. Moreover, at SARS-CoV-2 NSP3 Mac1 [2] (setting [14]), the “PanDDA hit?” value is listed as “TRUE”. Further, the “Modeled?” value on SARS-CoV-2 NSP3 Mac1 [2] (setting [15]) is on record as “TRUE”. Also, at SARS-CoV-2 NSP3 Mac1 [2] (crystal soaking of Mac1), the Refined occupancy is 66.

In the case of `O=C(CCCCc1ccc(Br)cc1)NC(CCc1cn[nH]c1)C(=O)O` (stereo not drawn) [Compound Z3213], the 1-BDC at SARS-CoV-2 NSP3 Mac1 [2] (setting [16]) turned out to be 0.11.

For the molecule `O=C(Nc1ccc(C(=O)N[C@@H]2c3cccc(O)c3C[C@H]2C(=O)O)cc1)NC1CC1` [Compound E2160], the 1-BDC on SARS-CoV-2 NSP3 Mac1 [2] (setting [7]) was 0.08 and 0.1. Besides, the “1-BDC (PanDDA)” value at SARS-CoV-2 NSP3 Mac1 [2] (setting [4]) stood at 0.1. Moreover, the “PanDDA hit?” value on SARS-CoV-2 NSP3 Mac1 [2] (setting [8]) was “TRUE”. Further, on SARS-CoV-2 NSP3 Mac1 [2] (ligand modeled in this dataset, crystal soak, Compound_concentration 100 mM), the “Modeled?” value is “TRUE”. At SARS-CoV-2 NSP3 Mac1 [2] (crystal soaking of Mac1), the Refined occupancy came to 20.

Turning to `Nc1ccc(C(=O)N2CC(c3nnc(S)o3)C2)c(Cl)n1` [Compound Z1366], the 1-BDC on SARS-CoV-2 NSP3 Mac1 [2] (setting [16]) stood at 0.1.
